According to patent US10154990B2, “Medicaments for the treatment or prevention of fibrotic diseases” (Boehringer Ingelheim International GmbH, priority 2004, dated 2018):
Structures can show the parent of a compound that is named as a salt.

SMILES	melting point
NC(CCO)(CCO)c1ccc(N/C(=C2\C(=O)Nc3cc(C(=O)O)ccc32)c2ccccc2)cc1 (as salt: Na) [(aq), 3-Z-[1-(4-(di-(2-hydroxy-ethyl)-amino-methyl)-anilino)-1-phenyl-methylene]-6-carboxy-2-indolinone]	256 to 257 °C
COC(=O)c1ccc2c(c1)NC(=O)/C2=C(\Nc1ccc(N(C)C(=O)CC2CCN(C)CC2)cc1)c1ccccc1 [(ad), 3-Z-[1-(4-(N-((1-methyl-piperidin-4-yl)-methylcarbonyl)-N-methyl-amino)-anilino)-1-phenyl-methylene]-6-methoxycarbonyl-2-indolinone]	190 to 193 °C
COC(=O)c1ccc2c(c1)NC(=O)/C2=C(\Nc1ccc(NC(=O)CN2CCN(C)CC2)c(C)c1C)c1ccccc1 [(ae), 3-Z-[1-(2,3-dimethyl-4-(N-((4-methyl-piperazin-1-yl)-methylcarbonyl)-amino)-anilino)-1-phenyl-methylene]-6-methoxycarbonyl-2-indolinone]	254 to 257 °C
COC(=O)c1ccc2c(c1)NC(=O)/C2=C(\Nc1ccc(N(C)C(=O)N2CCN(C)CC2)cc1)c1ccccc1 [(ag), 3-Z-[1-(4-(N-((4-methyl-piperazin-1-yl)-carbonyl)-N-methyl-amino)-anilino)-1-phenyl-methylene]-6-methoxycarbonyl-2-indolinone]	205 to 208 °C
COC(=O)c1ccc2c(c1)NC(=O)/C2=C(\Nc1ccc(N(C)C(=O)NCCCN(C)C)cc1)c1ccccc1 [(ai), 3-Z-[1-(4-(N-((3-dimethylamino-propyl)-aminocarbonyl)-N-methyl-amino)-anilino)-1-phenyl-methylene]-6-methoxycarbonyl-2-indolinone]	166 to 170 °C
CN1CCN(Cc2ccc(N/C(=C3\C(=O)Nc4cc(C(=O)O)ccc43)c3ccccc3)cc2)CC1 [(am), 3-Z-[1-(4-(4-methylpiperazin-1-yl-methyl)-anilino)-1-phenyl-methylene]-6-carboxy-2-indolinone]	275 °C
CNCc1ccc(N/C(=C2\C(=O)Nc3cc(C(=O)O)ccc32)c2ccccc2)cc1 [(an), 3-Z-[1-(4-methylaminomethyl-anilino)-1-phenyl-methylene]-6-carboxy-2-indolinone]	287 °C
O=C1Nc2cc(C(=O)O)ccc2/C1=C(/Nc1ccc(CN2CCOCC2)cc1)c1ccccc1 [(ao), 3-Z-[1-(4-(morpholin-4-yl-methyl)-anilino)-1-phenyl-methylene]-6-carboxy-2-indolinone]	335 °C
CN(C)CCN(c1ccc(N/C(=C2\C(=O)Nc3cc(C(=O)O)ccc32)c2ccccc2)cc1)S(C)(=O)=O [(ap), 3-Z-[1-(4-(N-(2-dimethylamino-ethyl)-N-methylsulphonyl-amino)-anilino)-1-phenyl-methylene]-6-carboxy-2-indolinone]	280 °C
CN(C(=O)CN1CCOCC1)c1ccc(N/C(=C2\C(=O)Nc3cc(C(=O)O)ccc32)c2ccccc2)cc1 [(as), 3-Z-[1-(4-(N-(morpholin-4-yl-methylcarbonyl)-N-methyl-amino)-anilino)-1-phenyl-methylene]-6-carboxy-2-indolinone]	237 to 238 °C
CN(C)CCN(C)CC(=O)N(C)c1ccc(N/C(=C2\C(=O)Nc3cc(C(=O)O)ccc32)c2ccccc2)cc1 [(at), 3-Z-[1-(4-(N—(N-(2-dimethylamino-ethyl)-N-methyl-aminomethylcarbonyl)-N-methyl-amino)-anilino)-1-phenyl-methylene]-6-carboxy-2-indolinone]	238 to 240 °C
COC(=O)c1ccc2c(c1)NC(=O)/C2=C(\Nc1ccc(CN(C)C)cc1)c1cccc(CCC(=O)O)c1 [(aw), 3-Z-[1-(4-dimethylaminomethyl-anilino)-1-(3-(2-carboxy-ethyl)-phenyl)-methylene]-6-methoxycarbonyl-2-indolinone]	163 to 167 °C
COC(=O)c1ccc2c(c1)NC(=O)/C2=C(\Nc1ccc(CCN(C)C)cc1)c1cccc(CCC(=O)O)c1 [(ax), 3-Z-[1-(4-(2-dimethylamino-ethyl)-anilino)-1-(3-(2-carboxy-ethyl)-phenyl)-methylene]-6-methoxycarbonyl-2-indolinone]	248 to 255 °C
COC(=O)c1ccc2c(c1)NC(=O)/C2=C(\Nc1ccc(-c2nccn2C)cc1)c1cccc(CCC(=O)O)c1 [(ay), 3-Z-[1-(4-(1-methyl-imidazol-2-yl)-anilino)-1-(3-(2-carboxy-ethyl)-phenyl)-methylene]-6-methoxycarbonyl-2-indolinone]	184 to 190 °C
COC(=O)c1ccc2c(c1)NC(=O)/C2=C(\Nc1ccc(CN(C)C)cc1)c1ccc(CCC(=O)O)cc1 [(az), 3-Z-[1-(4-dimethylaminomethyl-anilino)-1-(4-(2-carboxy-ethyl)-phenyl)-methylene]-6-methoxycarbonyl-2-indolinone]	190 to 195 °C
CCNC(=O)c1ccc2c(c1)NC(=O)/C2=C(\Nc1ccc(OCCN(C)C)cc1)c1ccccc1 [(bu), 3-Z-[1-(4-(2-dimethylamino-ethoxy)-anilino)-1-phenyl-methylene]-6-ethylcarbamoyl-2-indolinone]	308 to 311 °C

SMILES	melting point
CCNC(=O)c1ccc2c(c1)NC(=O)/C2=C(\Nc1ccc(N(C)C(=O)CN2CCN(C)CC2)cc1)c1ccccc1 [(bv), 3-Z-[1-(4-(N-((4-methyl-piperazin-1-yl)-methylcarbonyl)-N-methyl-amino)-anilino)-1-phenyl-methylene]-6-ethylcarbamoyl-2-indolinone]	279 to 283 °C
CCNC(=O)c1ccc2c(c1)NC(=O)/C2=C(\Nc1ccc(N(CCN(C)C)S(C)(=O)=O)cc1)c1ccccc1 [(bw), 3-Z-[1-(4-(N-(2-dimethylamino-ethyl)-N-methylsulphonyl-amino)-anilino)-1-phenyl-methylene]-6-ethylcarbamoyl-2-indolinone]	213 to 217 °C
CCNC(=O)c1ccc2c(c1)NC(=O)/C2=C(\Nc1ccc(N(C)C(=O)CN(C)C)cc1)c1ccccc1 [(by), 3-Z-[1-(4-(N-dimethylaminomethylcarbonyl-N-methyl-amino)-anilino)-1-phenyl-methylene]-6-ethylcarbamoyl-2-indolinone]	130 to 134 °C
CCNC(=O)c1ccc2c(c1)NC(=O)/C2=C(\Nc1ccc(CN(C)C)cc1)c1ccccc1 [(bz), 3-Z-[1-(4-dimethylaminomethyl-anilino)-1-phenyl-methylene]-6-ethylcarbamoyl-2-indolinone]	341 to 344 °C
CCNC(=O)c1ccc2c(c1)NC(=O)/C2=C(\Nc1ccc(N(CCN(C)C)C(C)=O)cc1)c1ccccc1 [(ca), 3-Z-[1-(4-(N-(2-dimethylamino-ethyl)-N-acetyl-amino)-anilino)-1-phenyl-methylene]-6-ethylcarbamoyl-2-indolinone]	266 to 270 °C
CCNC(=O)c1ccc2c(c1)NC(=O)/C2=C(\Nc1ccc(N(CCCN(C)C)C(C)=O)cc1)c1ccccc1 [(cb), 3-Z-[1-(4-(N-(3-dimethylamino-propyl)-N-acetyl-amino)-anilino)-1-phenyl-methylene]-6-ethylcarbamoyl-2-indolinone]	198 to 202 °C
CCNC(=O)c1ccc2c(c1)NC(=O)/C2=C(\Nc1ccc(C(=O)N2CCN(C)CC2)cc1)c1ccccc1 [(cf), 3-Z-[1-(4-((4-methyl-piperazin-1-yl)-carbonyl)-anilino)-1-phenyl-methylene]-6-ethylcarbamoyl-2-indolinone]	288 to 292 °C
CCN(CC)C(=O)c1ccc2c(c1)NC(=O)/C2=C(\Nc1ccc(N(C)C(=O)CN2CCN(C)CC2)cc1)c1ccccc1 [(ci), 3-Z-[1-(4-(N-((4-methyl-piperazin-1-yl)-methylcarbonyl)-N-methyl-amino)-anilino)-1-phenyl-methylene]-6-diethylcarbamoyl-2-indolinone]	195 to 198 °C
CCNC(=O)c1ccc2c(c1)NC(=O)/C2=C(\Nc1ccc(C(=O)N2CCN(CC)CC2)cc1)c1ccccc1 [(ck), 3-Z-[1-(4-((4-ethyl-piperazin-1-yl)-carbonyl)-anilino)-1-phenyl-methylene]-6-ethylcarbamoyl-2-indolinone]	127 to 130 °C
CCNC(=O)c1ccc2c(c1)NC(=O)/C2=C(\Nc1ccc(C(=O)N2C[C@@H](C)N[C@@H](C)C2)cc1)c1ccccc1 [(cm), 3-Z-[1-(4-((cis-3,5-dimethyl-piperazin-1-yl)-carbonyl)-anilino)-1-phenyl-methylene]-6-ethylcarbamoyl-2-indolinone]	217 to 220 °C
CCNC(=O)c1ccc2c(c1)NC(=O)/C2=C(\Nc1ccc(N(CCCN(C)C)S(C)(=O)=O)cc1)c1ccccc1 [(cn), 3-Z-[1-(4-(N-(3-dimethylamino-propyl)-N-methylsulphonyl-amino)-anilino)-1-phenyl-methylene]-6-ethylcarbamoyl-2-indolinone]	171 to 175 °C
COC(=O)c1ccc2c(c1)NC(=O)/C2=C\Nc1ccc(N(C)C(=O)CN(C)C)cc1 [(co), 3-Z-[1-(4-(N-dimethylaminomethylcarbonyl-N-methyl-amino)-anilino)-methylene]-6-methoxycarbonyl-2-indolinone]	250 to 255 °C
COC(=O)c1ccc2c(c1)NC(=O)/C2=C\Nc1ccc(CN(C)C)cc1 [(cp), 3-Z-[1-(4-dimethylaminomethyl-anilino)-methylene]-6-methoxycarbonyl-2-indolinone]	234 to 238 °C
COC(=O)c1ccc2c(c1)NC(=O)/C2=C\Nc1ccc(N(C)C(=O)CN2CCN(C)CC2)cc1 [(cq), 3-Z-[1-(4-(N-((4-methyl-piperazin-1-yl)-methylcarbonyl)-N-methyl-amino)-anilino)-methylene]-6-methoxycarbonyl-2-indolinone]	203 to 207 °C
CCNC(=O)c1ccc2c(c1)NC(=O)/C2=C\Nc1ccc(CN2CCCCC2)cc1 [(ct), 3-Z-[1-(4-(piperidin-1-yl-methyl)-anilino)-methylene]-6-ethylcarbamoyl-2-indolinone]	245 to 248 °C
CCNC(=O)c1ccc2c(c1)NC(=O)/C2=C\Nc1ccc(N(CCCN(C)C)C(C)=O)cc1 [(cu), 3-Z-[1-(4-(N-(3-dimethylamino-propyl)-N-acetyl-amino)-anilino)-methylene]-6-ethylcarbamoyl-2-indolinone]	130 °C
